The source of these data is patent US20120309739A1, “AKT / PKB INHIBITORS” (ALMAC DISCOVERY LIMITED, priority 2009, published 2012).

The structures appear in SMILES notation. Where a name gives a salt, the structure may show the parent alone. Where only a bound is given, the exact number is not on record here.

Holding throughout (format): biochemical
In test [1] the target is T1, AKT2 (Homo sapiens, UniProt P31751).
T1 construct: purchased SignalChem
Put plainly: AKT Kinase Assay (IMAP fluorescent polarisation) vs AKT2. The following applies: activated AKT2, FAM Crosstide substrate. As for the experimental part:
(§1) Testing of the compounds was performed using an AKT Kinase Assay:
(§2) Activated AKT isoforms 1, 2 and 3 were assayed utilising a 5′ FAM Crosstide (Seq. GRPRTSSFAEG-OH). The extent of kinase phosphorylation was determined by fluorescent polarisation using IMAP progressive binding reagent, which introduces binding beads which allow the reagent to specifically bind to phosphate residues via covalent co-ordination complex bonds.
(§3) iMAP binding solution stops Crosstide/kinase interaction and specifically binds phosphorylated substrates. The degree of phosphorylation is determined by fluorescent polarisation (excitation 485 nm; emission 528 nm) or the reduction in speed of rotation of the excited substrate.
(§4) The following materials were used in the assay: • a) Activated AKT isoforms (SignalChem.) dissolved in Complete Reaction buffer at a pre-determined concentration selected so that the assay was carried out in the linear range. • b) AKT substrate peptide: FAM Crosstide (R7110) Molecular Devices, diluted in complete reaction buffer. • c) iMAP Progressive Screening Express Kit (R8127) Molecular Devices • d) Complete Reaction Buffer containing 0.1% BSA, 10 mM Tris-HCl, 10 mM MgCl2, 0.05% NaN3 and 0.01% phosphate free BSA, 1 mM DTT • e) Progressive Binding Solution containing 75% Buffer A, 25% Buffer B and low volume Binding Reagent which contains the binding entity for the assay • f) ATP diluted in complete reaction buffer • g) Black polystyrene 384 well assay plates (Nunc). • h) Biotek Synergy 4 Hybrid Plate reader.
(§5) 50 μl of test compound was dissolved in DMSO (Sigma Aldrich) and serially diluted in complete reaction buffer to give a fourteen point half log dose response and plated into 384 well black plates. The compound was incubated at room temperature with activated AKT isoform ([…]) at the pre-determined concentration, for 45 minutes.
(§6) […] of ATP solution mixed with 2.5 μl of AKT substrate peptide (FAM Crosstide (R7110) Molecular Devices) were dispensed into each well and the plate centrifuged at 1000 rpm for 20 seconds to ensure homogenous mixing of reagents. The reaction mix was incubated in the dark for one hour at room temperature.
(§7) The kinase reaction was stopped by the addition of Progressive Binding Solution and the mixture allowed to equilibrate for one hour in the dark, at room temperature.
(§8) The fluorescent polarisation generated in each well was determined using a […] Synergy 4 Hybrid plate reader. In brief, each reaction solution was excited at 485 nm with the emission measured at 528 nm in both the parallel and perpendicular pathway.
(§9) The polarisation value generated in each well was calculated by Gen5 software (Biotek) and the % inhibition of kinase activity compared to vehicle control was calculated via GraphPad Prism. IC50 values for each compound were calculated by non-linear regression analysis using Prism software.
(§10) All plates were internally controlled by two methods. Firstly, by calculating the signal:noise ratio; based on kinase polarisation without inhibitor and polarisation generated by complete reaction buffer in the absence of activated kinase. Secondly by determining IC50 values generated by known inhibitors of the AKT isoforms.

Test [2] has as its target T2, AKT3 (Homo sapiens, UniProt Q9Y243).
T2 construct: purchased SignalChem
Put plainly: AKT Kinase Assay (IMAP fluorescent polarisation) vs AKT3. The following applies: activated AKT3, FAM Crosstide substrate. As for the experimental part: as §1, §2, §3, §4, §5, §6, §7, §8, §9, §10

Test [3] concerns the target T3, AKT1 (Homo sapiens, UniProt P31749).
T3 construct: purchased SignalChem
Nature of the test: AKT Kinase Assay (IMAP fluorescent polarisation) vs AKT1. The following applies: activated AKT1, FAM Crosstide substrate. As for the experimental part:
as §1, §2, §3, §4, §5, §6, §7, §8, §9, §10

T3 sequence (P31749 whole entry): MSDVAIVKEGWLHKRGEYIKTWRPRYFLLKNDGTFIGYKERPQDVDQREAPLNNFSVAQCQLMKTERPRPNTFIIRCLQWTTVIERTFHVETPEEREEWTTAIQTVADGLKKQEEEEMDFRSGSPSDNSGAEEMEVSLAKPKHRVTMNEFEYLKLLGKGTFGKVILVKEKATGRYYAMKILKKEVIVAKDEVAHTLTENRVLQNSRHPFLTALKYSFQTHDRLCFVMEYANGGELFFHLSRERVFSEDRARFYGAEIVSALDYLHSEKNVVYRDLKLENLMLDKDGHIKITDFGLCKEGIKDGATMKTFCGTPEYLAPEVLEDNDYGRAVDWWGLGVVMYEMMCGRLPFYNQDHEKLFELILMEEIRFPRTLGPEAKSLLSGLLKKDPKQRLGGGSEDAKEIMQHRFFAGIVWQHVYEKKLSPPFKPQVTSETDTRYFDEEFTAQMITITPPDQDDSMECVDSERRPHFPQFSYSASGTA
T1 sequence (P31751 whole entry): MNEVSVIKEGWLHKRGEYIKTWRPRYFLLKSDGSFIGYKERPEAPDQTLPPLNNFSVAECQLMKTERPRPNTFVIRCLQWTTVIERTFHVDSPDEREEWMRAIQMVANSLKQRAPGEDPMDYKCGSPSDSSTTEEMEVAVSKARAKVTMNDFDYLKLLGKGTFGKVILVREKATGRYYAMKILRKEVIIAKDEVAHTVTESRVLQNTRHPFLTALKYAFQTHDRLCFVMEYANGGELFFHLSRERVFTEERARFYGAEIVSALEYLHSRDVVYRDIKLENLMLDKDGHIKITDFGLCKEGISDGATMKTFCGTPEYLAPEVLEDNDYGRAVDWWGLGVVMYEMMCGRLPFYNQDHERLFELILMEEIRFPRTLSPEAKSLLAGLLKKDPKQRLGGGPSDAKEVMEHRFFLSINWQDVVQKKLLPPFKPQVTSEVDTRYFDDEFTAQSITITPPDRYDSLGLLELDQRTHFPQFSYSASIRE
T2 sequence (Q9Y243 whole entry): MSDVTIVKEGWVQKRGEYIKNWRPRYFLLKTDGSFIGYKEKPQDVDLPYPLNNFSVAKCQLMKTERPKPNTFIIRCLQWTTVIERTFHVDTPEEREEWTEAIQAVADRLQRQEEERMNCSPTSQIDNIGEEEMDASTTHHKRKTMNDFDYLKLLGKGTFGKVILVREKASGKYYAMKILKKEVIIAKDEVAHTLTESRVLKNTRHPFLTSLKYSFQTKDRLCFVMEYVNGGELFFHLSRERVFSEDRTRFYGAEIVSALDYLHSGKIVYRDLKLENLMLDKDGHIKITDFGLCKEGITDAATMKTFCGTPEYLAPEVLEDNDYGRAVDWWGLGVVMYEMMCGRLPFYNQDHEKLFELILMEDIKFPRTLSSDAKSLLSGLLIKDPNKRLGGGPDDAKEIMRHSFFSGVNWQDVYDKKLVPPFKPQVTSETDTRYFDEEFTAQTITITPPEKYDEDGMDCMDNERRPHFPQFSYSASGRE

On to `NC1(c2ccc(-c3oc4cnccc4c3-c3ccccc3)cc2)CCC1` [Example 2, 1-(4-(3-Phenylfuro[2,3-c]pyridin-2-yl)phenyl)cyclobutanamine], for which the IC50 in test [1] was 1000 to 10000 nM; in test [2], above 10000 nM; in test [3], above 10000 nM.

Regarding `NC1(c2ccc(-c3oc4cnccc4c3I)cc2)CCC1` [Example 3, 1-(4-(3-Iodofuro[2,3-c]pyridin-2-yl)phenyl)cyclobutanamine], the IC50 in test [1], in test [2] and in test [3] was 1000 to 10000 nM throughout.

On to `Cn1ccc2oc(-c3ccc(C4(N)CCC4)cc3)c(-c3ccccc3)c2c1=O` [Example 4, 2-(4-(1-Aminocyclobutyl)phenyl)-5-methyl-3-phenylfuro[3,2-c]pyridin-4(5H)-one], for which the IC50 in test [1] was 1000 to 10000 nM; in test [2] it was above 10000 nM; in test [3] it was 100 to 1000 nM.

For the compound `NC(=O)c1ccc2c(-c3ccccc3)c(-c3ccc(C4(N)CCC4)cc3)oc2c1` [Example 5, 2-(4-(1-Aminocyclobutyl)phenyl)-3-phenylbenzofuran-6-carboxamide], the IC50 in test [1] is 1000 to 10000 nM; in test [2] it was above 10000 nM; in test [3], 1000 to 10000 nM.

As to `N#Cc1ccc2oc(-c3ccc(C4(N)CCC4)cc3)c(-c3ccccc3)c2c1` [Example 6, 2-(4-(1-Aminocyclobutyl)phenyl)-3-phenylbenzofuran-5-carbonitrile], the IC50 in test [1] was 1000 to 10000 nM; in test [2], above 10000 nM; in test [3], 1000 to 10000 nM.

Take `NC(=O)c1ccc2oc(-c3ccc(C4(N)CCC4)cc3)c(-c3ccccc3)c2c1` [Example 7, 2-(4-(1-Aminocyclobutyl)phenyl)-3-phenylbenzofuran-5-carboxamide]: the IC50 in test [1] was 100 to 1000 nM; in test [2] it was above 10000 nM; in test [3], 100 to 1000 nM.

Turning to `N#Cc1cccc2c(-c3ccccc3)c(-c3ccc(C4(N)CCC4)cc3)oc12` [Example 8, 2-(4-(1-Aminocyclobutyl)phenyl)-3-phenylbenzofuran-7-carbonitrile], the IC50 in test [1] is 1000 to 10000 nM; in test [2], above 10000 nM; in test [3], 1000 to 10000 nM.

Consider `NC(=O)c1cccc2c(-c3ccccc3)c(-c3ccc(C4(N)CCC4)cc3)oc12` [Example 9, 2-(4-(1-Aminocyclobutyl)phenyl)-3-phenylbenzofuran-7-carboxamide.2HCl], for which the IC50 in test [1] is 1000 to 10000 nM; in test [2], above 10000 nM; in test [3] it was 1000 to 10000 nM.

With `NC1(c2ccc(-c3oc4ncc(Br)cc4c3-c3ccccc3)cc2)CCC1` [Example 11, 1-(4-(5-Bromo-3-phenylfuro[2,3-b]pyridin-2-yl)phenyl)cyclobutanamine.HCl], the concentration for half-maximal inhibition (IC50) in test [1], in test [2] and in test [3] was above 10000 nM each time.

Take `COc1nc(N2CCOCC2)nc2oc(-c3ccc(C4(N)CCC4)cc3)c(-c3ccccc3)c12` [Example 13, 1-(4-(4-Methoxy-2-morpholino-5-phenylfuro[2,3-d]pyrimidin-6-yl)phenyl)cyclobutanamine]: the IC50 is 100 to 1000 nM in test [1], 1000 to 10000 nM in test [2] and 1000 to 10000 nM in test [3].

`COc1nc(NCCN(C)C)nc2oc(-c3ccc(C4(N)CCC4)cc3)c(-c3ccccc3)c12` [Example 14, N^1-(6-(4-(1-Aminocyclobutyl)phenyl)-4-methoxy-5-phenylfuro[2,3-d]pyrimidin-2-yl)-N^2,N^2-dimethylethane-1,2-diamine]: the figures for the IC50 in test [1], in test [2] and in test [3] were 100 to 1000 nM, 1000 to 10000 nM and 100 to 1000 nM, respectively.

For the compound `NC1(c2ccc(-c3sc4nc[nH]c(=O)c4c3-c3ccccc3)cc2)CCC1` [Example 16, 6-(4-(1-Aminocyclobutyl)phenyl)-5-phenylthieno[2,3-d]pyrimidin-4(3H)-one], the IC50 in test [1] is 100 to 1000 nM; in test [2], 1000 to 10000 nM; in test [3] it was 1000 to 10000 nM.

For `COc1nccc2oc(-c3ccc(C4(N)CCC4)cc3)c(-c3ccccc3)c12` [Example 17, 1-(4-(4-Methoxy-3-phenylfuro[3,2-c]pyridin-2-yl)phenyl)cyclobutanamine], the IC50 in test [1] is 1000 to 10000 nM; in test [2], above 10000 nM; in test [3] it was 1000 to 10000 nM.
